2 sequences from PMC3601065 (PLoS ONE, 2013) can be followed below.

Where no end group is shown, it is not given here.

The target of one series is HLA-A*0201 (Homo sapiens, UniProt P04439, D140Y/D185E/D98H/E176V/E277Q/G131W/G231S/I119V/I121R/I166T/I218V/L300P/L318F/N151K/N90K/P208A/P217A/Q86G/Q94H/R138H/R169H/T345S). The experiment in a line: biochemical. Format: binding.

On to ILDAHSLYL [IL9], for which it took 1.3 nM to reach half-maximal inhibition on HLA-A*0201 (IC50). Moreover, the “cytotoxicity of peptide-specific CD8^+ T cells” value in the series with T2 target cells is given as “highly cytotoxic”.

For VLSEWLPVT [VT9], inhibition against HLA-A*0201 was half-maximal at 15 nM (IC50). Further, in the series on T2 target cells, the “cytotoxicity of peptide-specific CD8^+ T cells” value is given as “highly cytotoxic”.

A word on the IC50: it is the point on the concentration scale where inhibition reaches its midpoint. Higher therefore signals lower potency.
